# Measurements as given in PubChem BioAssay (NCI).
#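 In this assay, cells in 96-well plates receive the compound at five concentrations for 48 hours. Endpoints are linearly interpolated between the surrounding concentrations. GI50 = concentration required for 50% inhibition of growth. TGI: total growth inhibition.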
# Experiments:
# Assay in all cases: NCI tumour cell line growth inhibition, 48 h
# OVCAR-4 ovarian = tested on: OVCAR-4 ovarian
# SK-MEL-28 melanoma = tested on: SK-MEL-28 melanoma
# CCRF-CEM leukemia = tested on: CCRF-CEM leukemia
# ACHN renal = tested on: ACHN renal
# SN12C renal = tested on: SN12C renal
# OVCAR-8 ovarian = tested on: OVCAR-8 ovarian
# HL-60(TB) leukemia = tested on: HL-60(TB) leukemia
# SNB-19 CNS = tested on: SNB-19 CNS
# U251 CNS = tested on: U251 CNS
# A498 renal = tested on: A498 renal
# IGROV1 ovarian = tested on: IGROV1 ovarian
# RPMI-8226 leukemia = tested on: RPMI-8226 leukemia
# HCT-15 colon = tested on: HCT-15 colon
# UO-31 renal = tested on: UO-31 renal
# CAKI-1 renal = tested on: CAKI-1 renal
# DU-145 prostate = tested on: DU-145 prostate
# SR leukemia = tested on: SR leukemia
# RXF 393 renal = tested on: RXF 393 renal
# MOLT-4 leukemia = tested on: MOLT-4 leukemia
# PC-3 prostate = tested on: PC-3 prostate
# MCF7 breast = tested on: MCF7 breast
# MALME-3M melanoma = tested on: MALME-3M melanoma
# KM12 colon = tested on: KM12 colon
# HCC-2998 colon = tested on: HCC-2998 colon
# SF-268 CNS = tested on: SF-268 CNS
# COLO 205 colon = tested on: COLO 205 colon
# NCI-H226 lung = tested on: NCI-H226 lung
# SW-620 colon = tested on: SW-620 colon
# HCT-116 colon = tested on: HCT-116 colon
# NCI-H522 lung = tested on: NCI-H522 lung
# HS 578T breast = tested on: HS 578T breast
# EKVX NSCLC = tested on: EKVX NSCLC
# SK-MEL-5 melanoma = tested on: SK-MEL-5 melanoma
# 786-0 renal = tested on: 786-0 renal
# UACC-62 melanoma = tested on: UACC-62 melanoma
# OVCAR-3 ovarian = tested on: OVCAR-3 ovarian
# M14 melanoma = tested on: M14 melanoma
# SF-539 CNS = tested on: SF-539 CNS
# NCI/ADR-RES ovarian = tested on: NCI/ADR-RES ovarian
# UACC-257 melanoma = tested on: UACC-257 melanoma
# MDA-MB-231 breast = tested on: MDA-MB-231 breast
# BT-549 breast = tested on: BT-549 breast
# OVCAR-5 ovarian = tested on: OVCAR-5 ovarian
# HT29 colon = tested on: HT29 colon
# NCI-H460 lung = tested on: NCI-H460 lung
# SK-OV-3 ovarian = tested on: SK-OV-3 ovarian
# A549 NSCLC = tested on: A549 NSCLC
# SK-MEL-2 melanoma = tested on: SK-MEL-2 melanoma
# SF-295 CNS = tested on: SF-295 CNS
# MDA-MB-435 = tested on: MDA-MB-435
# HOP-62 NSCLC = tested on: HOP-62 NSCLC
# SNB-75 CNS = tested on: SNB-75 CNS
# NCI-H23 lung = tested on: NCI-H23 lung
# K-562 leukemia = tested on: K-562 leukemia
# LOX IMVI melanoma = tested on: LOX IMVI melanoma
# TK-10 renal = tested on: TK-10 renal
compound,measurement,setting,value
Cn1cc(-c2ccc(-c3cn(C)c4ccc(Cl)cc34)s2)c2cc(Cl)ccc21,GI50,OVCAR-4 ovarian,> 100 µM
same,TGI,OVCAR-4 ovarian,> 100 µM
same,GI50,SK-MEL-28 melanoma,> 100 µM
same,TGI,SK-MEL-28 melanoma,> 100 µM
same,GI50,CCRF-CEM leukemia,> 100 µM
same,TGI,CCRF-CEM leukemia,> 100 µM
same,GI50,ACHN renal,> 100 µM
same,TGI,ACHN renal,> 100 µM
same,GI50,SN12C renal,> 100 µM
same,TGI,SN12C renal,> 100 µM
same,GI50,OVCAR-8 ovarian,> 100 µM
same,TGI,OVCAR-8 ovarian,> 100 µM
same,GI50,HL-60(TB) leukemia,> 100 µM
same,TGI,HL-60(TB) leukemia,> 100 µM
same,GI50,SNB-19 CNS,> 100 µM
same,TGI,SNB-19 CNS,> 100 µM
same,GI50,U251 CNS,> 100 µM
same,TGI,U251 CNS,> 100 µM
same,GI50,A498 renal,> 100 µM
same,TGI,A498 renal,> 100 µM
same,GI50,IGROV1 ovarian,> 100 µM
same,TGI,IGROV1 ovarian,> 100 µM
same,GI50,RPMI-8226 leukemia,> 100 µM
same,TGI,RPMI-8226 leukemia,> 100 µM
same,GI50,HCT-15 colon,> 100 µM
same,TGI,HCT-15 colon,> 100 µM
same,GI50,UO-31 renal,> 100 µM
same,TGI,UO-31 renal,> 100 µM
same,GI50,CAKI-1 renal,> 100 µM
same,TGI,CAKI-1 renal,> 100 µM
same,GI50,DU-145 prostate,> 100 µM
same,TGI,DU-145 prostate,> 100 µM
same,GI50,SR leukemia,> 100 µM
same,TGI,SR leukemia,> 100 µM
same,GI50,RXF 393 renal,70.3 µM
same,TGI,RXF 393 renal,> 100 µM
same,GI50,MOLT-4 leukemia,> 100 µM
same,TGI,MOLT-4 leukemia,> 100 µM
same,GI50,PC-3 prostate,> 100 µM
same,TGI,PC-3 prostate,> 100 µM
same,GI50,MCF7 breast,> 100 µM
same,TGI,MCF7 breast,> 100 µM
same,GI50,MALME-3M melanoma,> 100 µM
same,TGI,MALME-3M melanoma,> 100 µM
same,GI50,KM12 colon,> 100 µM
same,TGI,KM12 colon,> 100 µM
same,GI50,HCC-2998 colon,> 100 µM
same,TGI,HCC-2998 colon,> 100 µM
same,GI50,SF-268 CNS,> 100 µM
same,TGI,SF-268 CNS,> 100 µM
same,GI50,COLO 205 colon,> 100 µM
same,TGI,COLO 205 colon,> 100 µM
same,GI50,NCI-H226 lung,> 100 µM
same,TGI,NCI-H226 lung,> 100 µM
same,GI50,SW-620 colon,> 100 µM
same,TGI,SW-620 colon,> 100 µM
same,GI50,HCT-116 colon,> 100 µM
same,TGI,HCT-116 colon,> 100 µM
same,GI50,NCI-H522 lung,> 100 µM
same,TGI,NCI-H522 lung,> 100 µM
same,GI50,HS 578T breast,> 100 µM
same,TGI,HS 578T breast,> 100 µM
same,GI50,EKVX NSCLC,> 100 µM
same,TGI,EKVX NSCLC,> 100 µM
same,GI50,SK-MEL-5 melanoma,> 100 µM
same,TGI,SK-MEL-5 melanoma,> 100 µM
same,GI50,786-0 renal,> 100 µM
same,TGI,786-0 renal,> 100 µM
same,GI50,UACC-62 melanoma,> 100 µM
same,TGI,UACC-62 melanoma,> 100 µM
same,GI50,OVCAR-3 ovarian,> 100 µM
same,TGI,OVCAR-3 ovarian,> 100 µM
same,GI50,M14 melanoma,> 100 µM
same,TGI,M14 melanoma,> 100 µM
same,GI50,SF-539 CNS,> 100 µM
same,TGI,SF-539 CNS,> 100 µM
same,GI50,NCI/ADR-RES ovarian,> 100 µM
same,TGI,NCI/ADR-RES ovarian,> 100 µM
same,GI50,UACC-257 melanoma,> 100 µM
same,TGI,UACC-257 melanoma,> 100 µM
same,GI50,MDA-MB-231 breast,> 100 µM
same,TGI,MDA-MB-231 breast,> 100 µM
same,GI50,BT-549 breast,> 100 µM
same,TGI,BT-549 breast,> 100 µM
same,GI50,OVCAR-5 ovarian,> 100 µM
same,TGI,OVCAR-5 ovarian,> 100 µM
same,GI50,HT29 colon,> 100 µM
same,TGI,HT29 colon,> 100 µM
same,GI50,NCI-H460 lung,> 100 µM
same,TGI,NCI-H460 lung,> 100 µM
same,GI50,SK-OV-3 ovarian,> 100 µM
same,TGI,SK-OV-3 ovarian,> 100 µM
same,GI50,A549 NSCLC,> 100 µM
same,TGI,A549 NSCLC,> 100 µM
same,GI50,SK-MEL-2 melanoma,> 100 µM
same,TGI,SK-MEL-2 melanoma,> 100 µM
same,GI50,SF-295 CNS,> 100 µM
same,TGI,SF-295 CNS,> 100 µM
same,GI50,MDA-MB-435,> 100 µM
same,TGI,MDA-MB-435,> 100 µM
same,GI50,HOP-62 NSCLC,> 100 µM
same,TGI,HOP-62 NSCLC,> 100 µM
same,GI50,SNB-75 CNS,> 100 µM
same,TGI,SNB-75 CNS,> 100 µM
same,GI50,NCI-H23 lung,> 100 µM
same,TGI,NCI-H23 lung,> 100 µM
same,GI50,K-562 leukemia,> 100 µM
same,TGI,K-562 leukemia,> 100 µM
same,GI50,LOX IMVI melanoma,> 100 µM
same,TGI,LOX IMVI melanoma,> 100 µM
same,GI50,TK-10 renal,> 100 µM
same,TGI,TK-10 renal,> 100 µM
